This assay addresses T1, PE-labeled human PD-L1-Ig binding to Jurkat cell line over-expressing human PD-1 (Jurkat-PD-1) (Homo sapiens, UniProt Q15116).
T1 construct: expressed in transfected cells; host or cells: Jurkat
In words: Jurkat-PD-1 Cell Binding High-Content Screening Assay (CBA): Method 1. The settings on record: Jurkat-hPD-1 cells, PE-labeled PD-L1-Ig 20 nM final; read-out: Jurkat HPDL1 PD1 IC50 (uM) (Method 1).

Numbered stars: 1 amine (or outer) side, 2 acyl side, 3 side chain; on linkers, the order of the positions; unused ones are H or OH. Bridge positions count the residues as written; N and C are the ends. Square brackets hold non-standard residues; d marks the D form. Peptide text beside a SMILES is read from it. * marks the point of attachment. ξ: configuration not given here. X33 = O=C([C@H](Cc1ccc(-c2cccc(Cl)c2)cc1)N[*:1])[*:2]; Phe(4-COOH) = N[C@@H](Cc1ccc(C(=O)O)cc1)C(=O)O; Phe(4-CH2NH2) = NCc1ccc(C[C@H](N)C(=O)O)cc1; Bip = N[C@@H](Cc1ccc(-c2ccccc2)cc1)C(=O)O; Phe(3-Me) = Cc1cccc(C[C@H](N)C(=O)O)c1; Phe(2-F) = N[C@@H](Cc1ccccc1F)C(=O)O; Val(3-OH) = CC(C)(O)[C@H](N)C(=O)O; 4Pal = N[C@@H](Cc1ccncc1)C(=O)O; Cha = N[C@@H](CC1CCCCC1)C(=O)O; Cit = NC(=O)NCCC[C@H](N)C(=O)O; Ile(3ξ) = CCC(C)[C@H](N)C(=O)O; Thr(3ξ) = CC(O)[C@H](N)C(=O)O; NEtAla = CCN[C@@H](C)C(=O)O; NMeS = CN[C@@H](CO)C(=O)O; Carboxymethyl = O=C(O)C*; NMeA = CN[C@@H](C)C(=O)O; Nle = CCCC[C@H](N)C(=O)O; Orn = NCCC[C@H](N)C(=O)O; Dab = NCC[C@H](N)C(=O)O; Dap = NC[C@H](N)C(=O)O

IC50 data for 15 molecules are collected here from US20240409585A1, “MACROCYCLIC IMMUNOMODULATORS” (priority 2021, published 2024).

T1 sequence (Q15116 25-288): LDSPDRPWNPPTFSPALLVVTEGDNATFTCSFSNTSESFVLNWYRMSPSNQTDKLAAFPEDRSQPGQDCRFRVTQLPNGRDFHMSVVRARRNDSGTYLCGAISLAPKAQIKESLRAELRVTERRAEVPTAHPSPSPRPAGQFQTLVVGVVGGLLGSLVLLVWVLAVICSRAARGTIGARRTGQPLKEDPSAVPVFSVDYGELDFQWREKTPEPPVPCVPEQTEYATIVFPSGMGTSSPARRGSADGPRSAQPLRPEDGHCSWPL

With `CCC(C)[C@@H]1NC(=O)[C@H](Cc2ccc(-c3ccccc3)cc2)NC(=O)[C@H](C(C)C)NC(=O)[C@H](Cc2c[nH]c3ccccc23)NC(=O)[C@H](CC(=O)O)NC(=O)[C@H](Cc2ccc(O)cc2)NC(=O)[C@H](Cc2ccncc2)NC(=O)CSC[C@@H](C(=O)N[C@@H](C)C(N)=O)NC(=O)[C@H](C(C)O)NC(=O)[C@H](CCN)NC(=O)[C@H](CC(C)C)NC(=O)[C@H](CC(N)=O)NC(=O)[C@@H](CC(C)C)NC(=O)[C@H](C)N(C)C1=O` (stereo partly drawn) [Compound 2060] ({CH2CO}-[4Pal]YDWV[Bip][Ile(3ξ)][NMeA][dL]NL[Dab][Thr(3ξ)]CA-NH2; thioether N-14), the IC50 (commonly the point on the concentration scale where inhibition reaches its midpoint) is 0.28 µM. Regarding `CC(C)C[C@@H]1NC(=O)[C@H](CCN)NC(=O)[C@@H](CC(C)C)NC(=O)[C@H](C)N(C)C(=O)[C@H](CCCN)NC(=O)[C@H](Cc2ccc(-c3ccccc3)cc2)NC(=O)[C@H](C(C)C)NC(=O)[C@H](Cc2c[nH]c3ccccc23)NC(=O)[C@H](CC(=O)O)NC(=O)[C@H](Cc2ccc(O)cc2)NC(=O)[C@H](CCC(N)=O)NC(=O)CSC[C@@H](C(=O)N[C@@H](C)C(N)=O)NC(=O)[C@H]([C@@H](C)O)NC(=O)[C@H](C(C)C)NC1=O` [Compound 1363] ({CH2CO}-QYDWV[Bip][Orn][NMeA][dL][Dab]LVTCA-NH2; thioether N-14), the IC50 came to 0.11 µM.

As for `CC(C)C[C@@H]1NC(=O)[C@H](CCN)NC(=O)[C@@H](CC(C)C)NC(=O)[C@H](C)N(C)C(=O)[C@H](CCCN)NC(=O)[C@H](Cc2ccc(-c3ccccc3)cc2)NC(=O)[C@H](C(C)C)NC(=O)[C@H](Cc2c[nH]c3ccccc23)NC(=O)[C@H](CC(=O)O)NC(=O)[C@H](Cc2ccc(O)cc2)NC(=O)[C@H](CN)NC(=O)CSC[C@@H](C(=O)N[C@@H](C)C(N)=O)NC(=O)[C@H](C(C)O)NC(=O)[C@H](C(C)C)NC1=O` (stereo partly drawn) [Compound 2080] ({CH2CO}-[Dap]YDWV[Bip][Orn][NMeA][dL][Dab]LV[Thr(3ξ)]CA-NH2; thioether N-14), the IC50 stood at 0.15 µM. `Cc1cccc(C[C@@H]2NC(=O)[C@H](CC(=O)O)NC(=O)[C@H](Cc3ccc(O)cc3)NC(=O)[C@H](CC(N)=O)NC(=O)CSC[C@@H](C(=O)N[C@H](C)C(N)=O)NC(=O)[C@H](CCC(=O)O)NC(=O)[C@H](C(C)(C)O)NC(=O)[C@H](CC3CCCCC3)NC(=O)[C@H](CCN)NC(=O)[C@@H](CC(C)C)NC(=O)[C@H](C)N(C)C(=O)[C@H](CCCNC(N)=O)NC(=O)[C@H](Cc3ccc(-c4ccccc4)cc3)NC(=O)[C@H](C(C)(C)O)NC2=O)c1` [Compound 1712] ({CH2CO}-NYD[Phe(3-Me)][Val(3-OH)][Bip][Cit][NMeA][dL][Dab][Cha][Val(3-OH)]EC[dA]-NH2; thioether N-14): the IC50 was 0.24 µM. Consider `CC(C)C[C@@H]1NC(=O)[C@H](CCN)NC(=O)[C@@H](CC(C)C)NC(=O)[C@H](C)N(C)C(=O)[C@H](CCCNC(=N)N)NC(=O)[C@H](Cc2ccc(-c3ccccc3)cc2)NC(=O)[C@H](C(C)C)NC(=O)[C@H](Cc2c[nH]c3ccccc23)NC(=O)[C@H](CC(=O)O)NC(=O)[C@H](Cc2ccc(O)cc2)NC(=O)[C@H](CC(N)=O)NC(=O)CSC[C@@H](C(=O)N[C@H](C)C(N)=O)NC(=O)[C@H]([C@@H](C)O)NC(=O)[C@H](C(C)C)NC1=O` [Compound 1183] ({CH2CO}-NYDWV[Bip]R[NMeA][dL][Dab]LVTC[dA]-NH2; thioether N-14), for which the IC50 was 0.15 µM. Consider `CC[C@H](C)[C@@H]1NC(=O)[C@H](Cc2ccc(-c3ccccc3)cc2)NC(=O)[C@H](C(C)C)NC(=O)[C@H](Cc2cccc(C)c2)NC(=O)[C@H](CC(=O)O)NC(=O)[C@H](Cc2ccc(C(=O)O)cc2)NC(=O)[C@H](Cc2ccc(OCC(=O)O)cc2)NC(=O)CSC[C@@H](C(=O)N[C@@H](C)C(N)=O)NC(=O)[C@H]([C@@H](C)O)NC(=O)[C@H](C(C)C)NC(=O)[C@H](CC(C)C)NC(=O)[C@H](CCN)NC(=O)[C@@H](CC(C)C)NC(=O)[C@H](C)N(C)C1=O` [Compound 1572] ({CH2CO}-Y(Carboxymethyl)[Phe(4-COOH)]D[Phe(3-Me)]V[Bip]I[NMeA][dL][Dab]LVTCA-NH2; thioether N-14), for which the IC50 was determined as 0.01 µM. Take `CC(C)C[C@@H]1NC(=O)[C@H](CCN)NC(=O)[C@@H](CC(C)C)NC(=O)[C@H](C)N(C)C(=O)[C@H](CCCNC(=N)N)NC(=O)[C@H](Cc2ccc(-c3cccc(Cl)c3)cc2)NC(=O)[C@H](C(C)C)NC(=O)[C@H](Cc2c[nH]c3ccccc23)NC(=O)[C@H](CC(=O)O)NC(=O)[C@H](Cc2ccc(O)cc2)NC(=O)[C@H](CC(N)=O)NC(=O)CSC[C@@H](C(=O)N[C@@H](C)C(N)=O)NC(=O)[C@H]([C@@H](C)O)NC(=O)[C@H](C(C)C)NC1=O` [Compound 1222] ({CH2CO}-NYDWV[X33]R[NMeA][dL][Dab]LVTCA-NH2; thioether N-14): the IC50 was 0.12 µM. In the case of `CC(C)C[C@@H]1NC(=O)[C@H](Cc2c[nH]c3ccccc23)NC(=O)[C@H](CC(=O)O)NC(=O)[C@H](Cc2ccc(O)cc2)NC(=O)[C@H](Cc2cnc[nH]2)NC(=O)CSC[C@@H](C(=O)NCC(N)=O)NC(=O)[C@H](CO)NC(=O)[C@H](C(C)C)NC(=O)[C@H](CC(C)C)NC(=O)[C@H](CC(N)=O)NC(=O)[C@H](CC(N)=O)NC(=O)[C@H](C)N(C)C(=O)[C@H](C(C)C)NC(=O)[C@H](Cc2ccc(-c3ccccc3)cc2)NC1=O` [Compound 1808] ({CH2CO}-HYDWL[Bip]V[NMeA]NNLVSCG-NH2; thioether N-14), the IC50 is 0.86 µM.

Take `CC(C)C[C@@H]1NC(=O)[C@H](CCN)NC(=O)[C@@H](CC(C)C)NC(=O)[C@H](C)N(C)C(=O)[C@H](C(C)C)NC(=O)[C@H](Cc2ccc(-c3ccccc3)cc2)NC(=O)[C@H](C(C)C)NC(=O)[C@H](Cc2c[nH]c3ccccc23)NC(=O)[C@H](CC(=O)O)NC(=O)[C@H](Cc2ccccc2F)NC(=O)[C@H](CN)NC(=O)CSC[C@@H](C(=O)N[C@@H](C)C(N)=O)NC(=O)[C@H]([C@@H](C)O)NC(=O)[C@H](C(C)C)NC1=O` [Compound 1442] ({CH2CO}-[Dap][Phe(2-F)]DWV[Bip]V[NMeA][dL][Dab]LVTCA-NH2; thioether N-14): the IC50 worked out at 0.03 µM. Regarding `CCCC[C@@H]1NC(=O)[C@H](CC(N)=O)NC(=O)[C@@H](C)NC(=O)[C@H](C)N(C)C(=O)[C@H](C(C)C)NC(=O)[C@H](Cc2ccc(-c3ccccc3)cc2)NC(=O)[C@H](CC(C)C)NC(=O)[C@H](Cc2c[nH]c3ccccc23)NC(=O)[C@H](CC(=O)O)NC(=O)[C@H](Cc2ccc(O)cc2)NC(=O)[C@H](Cc2ccccc2)NC(=O)CSC[C@@H](C(=O)N[C@@H](C)C(N)=O)NC(=O)[C@H]([C@@H](C)O)NC(=O)[C@H](CCCNC(=N)N)NC1=O` [Compound 1816] ({CH2CO}-FYDWL[Bip]V[NMeA][dA]N[Nle]RTCA-NH2; thioether N-14), the IC50 worked out at 0.32 µM.

As for `CCC(C)[C@@H]1NC(=O)[C@H](Cc2ccc(-c3ccccc3)cc2)NC(=O)[C@H](C(C)C)NC(=O)[C@H](Cc2c[nH]c3ccccc23)NC(=O)[C@H](CC(=O)O)NC(=O)[C@H](Cc2ccc(OCC(=O)O)cc2)NC(=O)[C@H](C(C)O)NC(=O)CSC[C@@H](C(=O)N[C@H](CC(N)=O)C(N)=O)NC(=O)[C@H](CO)NC(=O)[C@H](C(C)(C)O)NC(=O)[C@H](CC2CCCCC2)NC(=O)[C@H](CCN)NC(=O)[C@@H](CC(C)C)NC(=O)[C@H](C)N(C)C1=O` (stereo partly drawn) [Compound 2141] ({CH2CO}-[Thr(3ξ)]Y(Carboxymethyl)DWV[Bip][Ile(3ξ)][NMeA][dL][Dab][Cha][Val(3-OH)]SC[dN]-NH2; thioether N-14), the IC50 was 0.02 µM. As for `Cc1cccc(C[C@@H]2NC(=O)[C@H](CC(=O)O)NC(=O)[C@H](Cc3ccc(OCC(=O)O)cc3)NC(=O)[C@H](Cc3ccncc3)NC(=O)CSC[C@@H](C(N)=O)NC(=O)[C@H](CC(N)=O)NC(=O)[C@H](C(C)C)NC(=O)[C@H](CC3CCCCC3)NC(=O)[C@H](CCN)NC(=O)[C@@H](CC(C)C)NC(=O)[C@H](C)N(C)C(=O)[C@H](Cc3ccc(OCC(=O)O)cc3)NC(=O)[C@H](Cc3ccc(-c4ccccc4)cc3)NC(=O)[C@H](Cc3ccc(OCC(=O)O)cc3)NC2=O)c1` [Compound 1663] ({CH2CO}-[4Pal]Y(Carboxymethyl)D[Phe(3-Me)]Y(Carboxymethyl)[Bip]Y(Carboxymethyl)[NMeA][dL][Dab][Cha]VNC-NH2; thioether N-14), the IC50 stood at 0.01 µM.

Turning to `CCN1C(=O)[C@H](CCCNC(=N)N)NC(=O)[C@H](Cc2ccc(-c3ccccc3)cc2)NC(=O)[C@H](C(C)C)NC(=O)[C@H](Cc2c[nH]c3ccccc23)NC(=O)[C@H](CC(=O)O)NC(=O)[C@H](Cc2ccc(O)cc2)NC(=O)[C@H](CC(N)=O)NC(=O)CSC[C@@H](C(=O)N[C@@H](C)C(N)=O)NC(=O)[C@H]([C@@H](C)O)NC(=O)[C@H](C(C)C)NC(=O)[C@H](CC(C)C)NC(=O)[C@H](CCN)NC(=O)[C@@H](CC(C)C)NC(=O)[C@@H]1C` [Compound 1207] ({CH2CO}-NYDWV[Bip]R[NEtAla][dL][Dab]LVTCA-NH2; thioether N-14), the IC50 was found to be 0.07 µM. `CC(C)C[C@@H]1NC(=O)[C@H](CCN)NC(=O)[C@@H](CC(C)C)NC(=O)[C@H](CO)N(C)C(=O)[C@H](C(C)C)NC(=O)[C@H](Cc2ccc(-c3ccccc3)cc2)NC(=O)[C@H](C(C)C)NC(=O)[C@H](Cc2c[nH]c3ccccc23)NC(=O)[C@H](CC(=O)O)NC(=O)[C@H](Cc2ccc(O)cc2)NC(=O)[C@H](CC(N)=O)NC(=O)CSC[C@@H](C(=O)N[C@@H](C)C(N)=O)NC(=O)[C@H]([C@@H](C)O)NC(=O)[C@H](C(C)C)NC1=O` [Compound 1370] ({CH2CO}-NYDWV[Bip]V[NMeS][dL][Dab]LVTCA-NH2; thioether N-14): the IC50 stood at 0.01 µM. As to `CC(C)C[C@@H]1NC(=O)[C@H](Cc2c[nH]c3ccccc23)NC(=O)[C@H](CC(=O)O)NC(=O)[C@H](Cc2ccc(CN)cc2)NC(=O)[C@H](Cc2ccccc2)NC(=O)CSC[C@@H](C(=O)N[C@@H](C)C(N)=O)NC(=O)[C@H](CO)NC(=O)[C@H](C(C)C)NC(=O)[C@H](CC(C)C)NC(=O)[C@H](CC(N)=O)NC(=O)[C@@H](C)NC(=O)[C@H](C)N(C)C(=O)[C@H](C(C)C)NC(=O)[C@H](Cc2ccc(-c3ccccc3)cc2)NC1=O` [Compound 1750] ({CH2CO}-F[Phe(4-CH2NH2)]DWL[Bip]V[NMeA][dA]NLVSCA-NH2; thioether N-14), the IC50 came out at 0.02 µM.
